Assay results: patent US8431565B2 (priority 2007, dated 2013)

Target: T1, rat CB2 receptor (rCB2) (Rattus norvegicus, UniProt Q9QZN9)
T1 sequence (Q9QZN9 1-360): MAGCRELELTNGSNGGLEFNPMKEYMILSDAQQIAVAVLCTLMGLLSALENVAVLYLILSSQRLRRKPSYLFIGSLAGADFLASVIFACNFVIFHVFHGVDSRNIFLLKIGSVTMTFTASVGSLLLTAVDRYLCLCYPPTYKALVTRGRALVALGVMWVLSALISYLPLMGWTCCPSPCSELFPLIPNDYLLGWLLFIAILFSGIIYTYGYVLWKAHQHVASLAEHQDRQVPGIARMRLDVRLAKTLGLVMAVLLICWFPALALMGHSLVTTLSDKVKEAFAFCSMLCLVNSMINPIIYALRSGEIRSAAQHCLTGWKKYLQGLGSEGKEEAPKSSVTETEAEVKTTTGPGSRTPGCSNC

| SMILES | EC50 [nM] |
| --- | --- |
| CC(C)CN1CCn2c(-c3ccccc3)nc(C(=O)N[C@@H](C)C(C)(C)C)c2C1 [Compound 53, (S)-N-(3,3-dimethylbutan-2-yl)-7-isobutyl-3-phenyl-5,6,7,8-tetrahydroimidazo[1,5-a]pyrazine-1-carboxamide] | 10 to 100 |
| CCN1CCn2c(-c3ccccc3)nc(C(=O)N[C@H](C)C3CCCCC3)c2C1 [Compound 164, (R)-N-(1-cyclohexylethyl)-7-ethyl-3-phenyl-5,6,7,8-tetrahydroimidazo[1,5-a]pyrazine-1-carboxamide] | 10 to 100 |
| CC12CCC(C1)C(C)(C)C2NC(=O)c1nc(-c2ccccc2)n2c1CN(C(=O)C1CC1)CC2 (centres unmarked) [Compound 119, 7-(cyclopropanecarbonyl)-3-phenyl-N-(1,3,3-trimethyl-bicyclo[2.2.1]heptan-2-yl)-5,6,7,8-tetrahydroimidazo[1,5-a]pyrazine-1-carboxamide] | 10 to 100 |
| O=C(NC1CCCCC1)c1nc(-c2ccccc2)n2c1CN(CC1CCOC1)CC2 (centres unmarked) [Compound 141, N-cyclohexyl-3-phenyl-7-((tetrahydrofuran-3-yl)methyl)-5,6,7,8-tetrahydroimidazo[1,5-a]pyrazine-1-carboxamide] | 10 to 100 |
| CNC(=O)[C@@H](NC(=O)c1nc(C2=CCNCC2)n2c1CN(C)CC2)C(C)(C)C [Compound 274, (S)-N-(3,3-dimethyl-1-(methylamino)-1-oxobutan-2-yl)-7-methyl-3-(1,2,3,6-tetrahydropyridin-4-yl)-5,6,7,8-tetrahydroimidazo[1,5-a]pyrazine-1-carboxamide] | 10 to 100 |
| CNC(=O)[C@@H](NC(=O)c1nc(-c2ccccc2)n2c1CN(S(=O)(=O)c1ccccc1[N+](=O)[O-])CC2)C(C)(C)C [Compound 97, (S)-N-(3,3-dimethyl-1-(methylamino)-1-oxobutan-2-yl)-7-(2-nitrophenylsulfonyl)-3-phenyl-5,6,7,8-tetrahydroimidazo[1,5-a]pyrazine-1-carboxamide] | 10 to 100 |
| CC(C)CN1CCn2c(-c3ccccc3)nc(C(=O)NC3CCCCC3)c2C1 [Compound 165, N-cyclohexyl-7-isobutyl-3-phenyl-5,6,7,8-tetrahydroimidazo[1,5-a]pyrazine-1-carboxamide] | 0.1 to 10 |
| CC(C)(C)[C@@H](CO)NC(=O)c1nc(-c2ccccc2)n2c1CN(CC1CC1)CC2 [Compound 84, (S)-7-(cyclopropylmethyl)-N-(1-hydroxy-3,3-dimethylbutan-2-yl)-3-phenyl-5,6,7,8-tetrahydroimidazo[1,5-a]pyrazine-1-carboxamide] | 10 to 100 |
| CNC(=O)[C@@H](NC(=O)c1nc(-c2ccsc2)n2c1CN(CC1CC1)CC2)C(C)(C)C [Compound 74, (S)-7-(cyclopropylmethyl)-N-(3,3-dimethyl-1-(methylamino)-1-oxobutan-2-yl)-3-(thiophen-3-yl)-5,6,7,8-tetrahydroimidazo[1,5-a]pyrazine-1-carboxamide] | 10 to 100 |
| CNC(=O)[C@@H](NC(=O)c1nc(-c2ccccc2)n2c1CN(S(=O)(=O)C1CC1)CC2)C(C)(C)C [Compound 100, (S)-7-(cyclopropylsulfonyl)-N-(3,3-dimethyl-1-(methylamino)-1-oxobutan-2-yl)-3-phenyl-5,6,7,8-tetrahydroimidazo[1,5-a]pyrazine-1-carboxamide] | 10 to 100 |
| COC(=O)N1CCn2c(-c3ccccc3)nc(C(=O)N[C@@H](C)c3ccccc3)c2C1 [Compound 179, (S)-methyl 3-phenyl-1-(1-phenylethylcarbamoyl)-5,6-dihydroimidazo[1,5-a]pyrazine-7(8H)-carboxylate] | 10 to 100 |
| CNC(=O)[C@@H](NC(=O)c1nc(-c2ccc(Cl)cc2)n2c1CN(C)CC2)C(C)(C)C [Compound 49, (S)-3-(4-chlorophenyl)-N-(3,3-dimethyl-1-(methylamino)-1-oxobutan-2-yl)-7-methyl-5,6,7,8-tetrahydroimidazo[1,5-a]pyrazine-1-carboxamide] | 10 to 100 |
| CNC(=O)[C@@H](NC(=O)c1nc(-c2ccccc2)n2c1CN(S(=O)(=O)c1ccc(C(F)(F)F)cc1)CC2)C(C)(C)C [Compound 107, (S)-N-(3,3-dimethyl-1-(methylamino)-1-oxobutan-2-yl)-3-phenyl-7-(4-(trifluoromethyl)phenylsulfonyl)-5,6,7,8-tetrahydroimidazo[1,5-a]pyrazine-1-carboxamide] | 10 to 100 |
| CNC(=O)[C@@H](NC(=O)c1nc(-c2ccccc2)n2c1CN(C1CC1)CC2)C(C)(C)C [Compound 197, (S)-7-cyclopropyl-N-(3,3-dimethyl-1-(methylamino)-1-oxobutan-2-yl)-3-phenyl-5,6,7,8-tetrahydroimidazo[1,5-a]pyrazine-1-carboxamide] | 10 to 100 |
| Cc1noc([C@@H](NC(=O)c2nc(-c3ccccc3)n3c2CN(CC(C)C)CC3)C(C)(C)C)n1 [Compound 90, (S)-N-(2,2-dimethyl-1-(3-methyl-1,2,4-oxadiazol-5-yl)propyl)-7-isobutyl-3-phenyl-5,6,7,8-tetrahydroimidazo[1,5-a]pyrazine-1-carboxamide] | 0.1 to 10 |
| CNC(=O)[C@@H](NC(=O)c1nc(CCCC2CCCC2)n2c1CN(C)CCC2)C(C)(C)C [Compound 494, (S)-3-(3-cyclopentylpropyl)-N-(3,3-dimethyl-1-(methylamino)-1-oxobutan-2-yl)-8-methyl-6,7,8,9-tetrahydro-5H-imidazo[1,5-a][1,4]diazepine-1-carboxamide] | 10 to 100 |
| CNC(=O)[C@@H](NC(=O)c1nc(-c2ccccc2)n2c1CN(S(C)(=O)=O)CC2)C(C)(C)C [Compound 92, (S)-N-(3,3-dimethyl-1-(methylamino)-1-oxobutan-2-yl)-7-(methylsulfonyl)-3-phenyl-5,6,7,8-tetrahydroimidazo[1,5-a]pyrazine-1-carboxamide] | 10 to 100 |
| C[C@@H](NC(=O)c1nc(-c2ccccc2)n2c1CN(C(=O)C1CC1)CC2)C1CCCCC1 [Compound 132, (R)-N-(1-cyclohexylethyl)-7-(cyclopropanecarbonyl)-3-phenyl-5,6,7,8-tetrahydroimidazo[1,5-a]pyrazine-1-carboxamide] | 10 to 100 |
| CNC(=O)[C@@H](NC(=O)c1nc(-c2ccc(-c3ccccc3)cc2)n2c1CN(C)CC2)C(C)(C)C [Compound 265, (S)-3-(biphenyl-4-yl)-N-(3,3-dimethyl-1-(methylamino)-1-oxobutan-2-yl)-7-methyl-5,6,7,8-tetrahydroimidazo[1,5-a]pyrazine-1-carboxamide] | 10 to 100 |
| CNC(=O)[C@@H](NC(=O)c1nc(-c2ccccc2)n2c1CN(S(=O)(=O)c1ccc(C#N)cc1)CC2)C(C)(C)C [Compound 108, (S)-7-(4-cyanophenylsulfonyl)-N-(3,3-dimethyl-1-(methylamino)-1-oxobutan-2-yl)-3-phenyl-5,6,7,8-tetrahydroimidazo[1,5-a]pyrazine-1-carboxamide] | 10 to 100 |
| COC(=O)N1CCn2c(-c3ccc(Cl)cc3)nc(C(=O)NCCC(C)C)c2C1 [Compound 183, methyl 3-(4-chlorophenyl)-1-(isopentylcarbamoyl)-5,6-dihydroimidazol[1,5-a]pyrazine-7(8H)-carboxylate] | 10 to 100 |
| CCS(=O)(=O)N1CCn2c(-c3ccccc3)nc(C(=O)NC3C4(C)CCC(C4)C3(C)C)c2C1 (centres unmarked) [Compound 112, 7-(ethylsulfonyl)-3-phenyl-N-(1,3,3-trimethylbicyclo[2.2.1]heptan-2-yl)-5,6,7,8-tetrahydroimidazo[1,5-a]pyrazine-1-carboxamide] | 10 to 100 |
| CNC(=O)[C@@H](NC(=O)c1nc(-c2ccc(C)cc2F)n2c1CN(C)CC2)C(C)(C)C [Compound 249, (S)-N-(3,3-dimethyl-1-(methylamino)-1-oxobutan-2-yl)-3-(2-fluoro-4-methylphenyl)-7-methyl-5,6,7,8-tetrahydroimidazo[1,5-a]pyrazine-1-carboxamide] | 10 to 100 |
| CC(C)(C)c1noc([C@@H](NC(=O)c2nc(-c3ccccc3)n3c2CN(C2CC2)CC3)C(C)(C)C)n1 [Compound 284, (S)-N-(1-(3-tert-butyl-1,2,4-oxadiazol-5-yl)-2,2-dimethylpropyl)-7-cyclopropyl-3-phenyl-5,6,7,8-tetrahydroimidazo[1,5-a]pyrazine-1-carboxamide] | 0.1 to 10 |
| COC(=O)N1CCn2c(-c3ccccc3)nc(C(=O)N[C@H](C)C3CCCCC3)c2C1 [Compound 185, (R)-methyl 1-(1-cyclohexylethylcarbamoyl)-3-phenyl-5,6-dihydroimidazo[1,5-a]pyrazine-7(8H)-carboxylate] | 10 to 100 |
| CNC(=O)[C@@H](NC(=O)c1nc(-c2cc(Cl)ccc2F)n2c1CN(C)CC2)C(C)(C)C [Compound 246, (S)-3-(5-chloro-2-fluorophenyl)-N-(3,3-dimethyl-1-(methylamino)-1-oxobutan-2-yl)-7-methyl-5,6,7,8-tetrahydroimidazo[1,5-a]pyrazine-1-carboxamide] | 10 to 100 |
| CNC(=O)[C@@H](NC(=O)c1nc(-c2ccccc2)n2c1CN(CC(C)C)CC2)C(C)(C)C [Compound 148, (S)-N-(3,3-dimethyl-1-(methylamino)-1-oxobutan-2-yl)-7-isobutyl-3-phenyl-5,6,7,8-tetrahydroimidazo[1,5-a]pyrazine-1-carboxamide] | 10 to 100 |
| COC(=O)N1CCn2c(-c3ccccc3)nc(C(=O)NC3C4(C)CCC(C4)C3(C)C)c2C1 (centres unmarked) [Compound 178, methyl 3-phenyl-1-(1,3,3-trimethylbicyclo[2.2.1]heptan-2-ylcarbamoyl)-5,6-dihydroimidazo[1,5-a]pyrazine-7(8H)-carboxylate] | 10 to 100 |
| CC(C)(C)C(=O)N1CCn2c(-c3ccccc3)nc(C(=O)NC3C4(C)CCC(C4)C3(C)C)c2C1 (centres unmarked) [Compound 123, 3-phenyl-7-pivaolyl-N-(1,3,3-trimethylbicyclo[2.2.1]heptan-2-yl)-5,6,7,8-tetrahydroimidazo[1,5-a]pyrazine-1-carboxamide] | 10 to 100 |
